Experimental data taken from PMC10516900 (Communications Biology, 2023).

B1: hUSP47CD-UBL12: human USP47 catalytic domain with the first two UBL domains, residues 1-794 (protein, UniProt Q96K76 1-794, looked up, fragment)
chain: MVPGEENQLVPKEDVFWRCRQNIFDEMKKKFLQIENAAEEPRVLCIIQDTTNSKTVNERITLNLPASTPVRKLFEDVANKVGYINGTFDLVWGNGINTADMAPLDHTSDKSLLDANFEPGKKNFLHLTDKDGEQPQILLEDSSAGEDSVHDRFIGPLPREGSGGSTSDYVSQSYSYSSILNKSETGYVGLVNQAMTCYLNSLLQTLFMTPEFRNALYKWEFEESEEDPVTSIPYQLQRLFVLLQTSKKRAIETTDVTRSFGWDSSEAWQQHDVQELCRVMFDALEQKWKQTEQADLINELYQGKLKDYVRCLECGYEGWRIDTYLDIPLVIRPYGSSQAFASVEEALHAFIQPEILDGPNQYFCERCKKKCDARKGLRFLHFPYLLTLQLKRFDFDYTTMHRIKLNDRMTFPEELDMSTFIDVEDEKSPQTESCTDSGAENEGSCHSDQMSNDFSNDDGVDEGICLETNSGTEKISKSGLEKNSLIYELFSVMVHSGSAAGGHYYACIKSFSDEQWYSFNDQHVSRITQEDIKKTHGGSSGSRGYYSSAFASSTNAYMLIYRLKDPARNAKFLEVDEYPEHIKNLVQKERELEEQEKRQREIERNTCKIKLFCLHPTKQVMMENKLEVHKDKTLKEAVEMAYKMMDLEEVIPLDCCRLVKYDEFHDYLERSYEGEEDTPMGLLLGGVKSTYMFDLLLETRKPDQVFQSYKPGEVMVKVHVVDLKAESVAAPITVRAYLNQTVTEFKQLISKAIHLPAETMRIVLERCYNDLRLLSVSSKTLKAEGFFRSNKVFV
modifications: catalytic domain with UBL1-2

How the values were obtained:
USP7 = conditions: recently reported USP7 inhibitors; cited from earlier work
HCT116 (p53+/+) cells = experiment: Q-PCR relative expression levels, HCT116 (p53+/+); format: cell-based, human
Ub-AMC = Ub-AMC hydrolysis, Michaelis-Menten enzyme kinetics and relative activity of USP constructs; format: biochemical
Experimental: Enzymes and substrates were diluted in the reaction buffer (20 mM HEPES, pH 7.4, 150 mM NaCl, and 5 mM DTT) to a concentration of 5 μM for the substrate and 0.5 μM for the enzymes. At the indicated time points following the reaction initiation, 10 μL reaction aliquots were taken and the reaction was stopped by adding SDS sampling buffer and analyzed using SDS-PAGE. Then, the 4–15% gradient gel was stained with Coomassie Brilliant Blue R-250. USP enzymatic activity and inhibition assays were measured at room temperature using the cleavage-sensitive fluorogenic substrate Ub-AMC (Boston Biochem, U-550). The deubiquitination assay was performed following the protocol by Ernst et al.[30]. Briefly, enzyme activity assays were performed in assay buffer in 20 mM HEPES (pH 7.4), 100 mM NaCl, and 5 mM DTT) containing cUSP47CD (in 50 nM), hUSP47CD-UBL12 (in 100 nM) or hUSP7CD (in 100 nM) constructs and serial dilutions of Ub-AMC (final 35 μM). The AMC fluorescence emission was monitored at 460 nm (excitation at 380 nm) for 30–60 min using a SpectraMax M3 plate reader (Molecular Devices). […] The data were fitted using GraphPad Prism 7 (GraphPad Inc.). Fluorescence intensity was recorded every 45 s for 90 min. Data are presented as the mean ± SD (n = 3).

Row | Molecule | potency and specificity for USP7 (USP7) | relative expression level of USP7 (Q-PCR) (HCT116 (p53+/+) cells) | relative expression level of USP47 (Q-PCR) (HCT116 (p53+/+) cells) | Km (Ub-AMC) | kcat (Ub-AMC)
1 | C[C@H](CC(=O)N1CCC(O)(Cn2cnc3cc(NC(=O)CCN4CCN(C)CC4)ccc3c2=O)CC1)c1ccccc1 [XL188] | high potency and specificity only for USP7 |  |  |  | 
2 | USP7i-2: USP7 siRNA #2, 5′-ACCCUUGGACAAUAUUCCU-3′ (chemistry not given here) |  | 0.5662 | 0.9671 |  | 
3 | USP47i-1: USP47 siRNA #1, 5′-AAGCTACTCCTACTCATCTATTT-3′ (chemistry not given here) |  | 0.6273 | 0.3385 |  | 
4 | USP47i-2: USP47 siRNA #2, 5′-TGAAAAGGGATGTGCAAAA-3′ (chemistry not given here) |  | 0.9487 | 0.486 |  | 
5 | B1 |  |  |  | 3000 ± 600 nM | 0.03 ± 0.002 s⁻¹
